Assay results: patent publication US20260297016A1, “THERAPEUTIC COMPOUNDS” (REGENTS OF THE UNIVERSITY OF MINNESOTA, priority 2023, published 2026)
Entries after “also recorded” stand apart in the source; their conditions may differ.

Key:
[1] = biological target: T1, STING (Homo sapiens, UniProt Q86WV6, G230A/H232R/R293Q/R71H); assay: IRF-Lucia Reporter STING Inhibition Assay (THP-1 Lucia ISG cells); type: cell-based; conditions: 1 μM 2,3-cGAMP, 20 hours
T1 construct: THP-1 Lucia ISG cells (InvivoGen, thpl-isg); host or cells: THP-1 Lucia ISG cells
Procedure: IRF-Lucia Reporter STING Inhibition Assay. […] Cells were incubated at 37° C. in a 5% CO2 atmosphere with varying concentrations of test compound for 1.5 hours, followed by treatment with 1 μM 2,3-cGAMP (InvivoGen, tlrl-nacga23-02) and incubated for 20 hours. A 20 μL aliquot of cell suspension was added to 50 μL. QUANTI-Luc™ reagent (InvivoGen, rep-qlc4lg2), and the resulting luminescence is measured by a GloMax Explorer (Promega) with a 0.1 second read time.

[2] = system: 661 W cells; conditions: 12.5 μM, 2 hours, H2O2 500 μM, 24 hours, n=6
[3] = system: 661 W cells; assay: 4-HNE-induced ROS production in 661 W cells; conditions: 12.5 μM, 2 hours, 4-HNE 10 μM, 24 hours, n=6
[4] = system: 661 W cells; assay: Viability of 661 W cells after H2O2 (trypan blue exclusion)
[5] = system: HMC3 cells; conditions: 12.5 μM, 200 μM TBHP
[6] = system: 661 W cells; assay: Viability of 661 W cells after 4-HNE (trypan blue exclusion)
[7] = system: patients with type 2 diabetes; conditions: orally administered, FIELD and ACCORD; cited from earlier work
[8] = system: PPARα; conditions: cited from earlier work
[9] = system: PPAR subtypes; conditions: cited from earlier work

T1 sequence (Q86WV6 whole entry R71H/G230A/H232R/R293Q): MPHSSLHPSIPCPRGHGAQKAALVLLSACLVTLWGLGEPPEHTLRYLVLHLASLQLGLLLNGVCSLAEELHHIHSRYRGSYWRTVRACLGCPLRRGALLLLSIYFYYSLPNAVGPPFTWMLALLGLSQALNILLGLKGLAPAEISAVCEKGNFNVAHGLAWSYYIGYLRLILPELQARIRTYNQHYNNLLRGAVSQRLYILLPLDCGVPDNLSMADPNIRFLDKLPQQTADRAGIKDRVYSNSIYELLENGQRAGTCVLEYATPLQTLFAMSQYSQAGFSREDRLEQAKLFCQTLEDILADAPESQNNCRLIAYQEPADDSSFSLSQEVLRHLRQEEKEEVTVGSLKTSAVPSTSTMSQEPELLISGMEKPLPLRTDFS

Row | SMILES | % STING INHIBITION, % at 12.5 μm [1] | % STING INHIBITION, % at 25 μm [1] | % STING INHIBITION, % at 50 μm [1] | other results
1 | O=C(O)c1cc(NCc2ccc(-c3ccc(C(F)(F)F)cc3)cc2)ccc1O [Example 32, 2-hydroxy-5-(((4′-(trifluoromethyl)-[1,1′-biphenyl]-4-yl)methyl)amino)benzoic acid] | 28% | 43% | 64% | 
2 | COc1ccc(-c2ccc(CNc3ccc(O)c(C(=O)O)c3)cc2)cc1 [Example 33] | 0% | 0% | 0% | 
3 | CS(=O)(=O)c1ccc(-c2ccc(CNc3ccc(O)c(C(=O)O)c3)cc2)cc1 [Example 34, 2-Hydroxy-5-(((4′-(methylsulfonyl)-[1,1′-biphenyl]-4-yl)methyl)amino)benzoic acid] | 0% | 0% | 0% | 
4 | O=C(O)c1cc(NCc2ccc(-c3ccc(O)cc3)cc2)ccc1O [Example 35, 2-Hydroxy-5-(((4′-hydroxy-[1,1′-biphenyl]-4-yl)methyl)amino)benzoic acid] | 0% | 0% | 0% | 
5 | CC(C)(C)c1ccc(-c2ccc(CNc3ccc(O)c(C(=O)O)c3)cc2)cc1 [Example 36, 5-(((4′-(tert-Butyl)-[1,1′-biphenyl]-4-yl)methyl)amino)-2-hydroxybenzoic acid] | 0% | 0% | >95% | 
6 | O=C(O)c1cc(NCc2ccc(-c3ccccc3)cc2)ccc1O [Example 37, 5-(([1,1′-Biphenyl]-4-ylmethyl)amino)-2-hydroxybenzoic acid] | 0% | 28% | 66% | 
7 | O=C(O)c1cc(NCc2ccc(-c3ccc(F)c([N+](=O)[O-])c3)cc2)ccc1O [Example 38, 5-(((4′-Fluoro-3′-nitro-[1,1′-biphenyl]-4-yl)methyl)amino)-2-hydroxybenzoic acid] | 0% | 39% | 90% | 
8 | COc1cc(F)ccc1-c1ccc(CNc2ccc(O)c(C(=O)O)c2)cc1 [Example 39, 5-(((4′-Fluoro-2′-methoxy-[1,1′-biphenyl]-4-yl)methyl)amino)-2-hydroxybenzoic acid] | 0% | 0% | 0% | 
9 | Cc1cc(F)ccc1-c1ccc(CNc2ccc(O)c(C(=O)O)c2)cc1 [Example 41, 5-(((4′-Fluoro-2′-methyl-[1,1′-biphenyl]-4-yl)methyl)amino)-2-hydroxybenzoic acid] | 25% | 47% | 80% | 
10 | COc1ccc(NCc2ccc(-c3ccc(F)cc3)cc2)cc1C#N [Example 43, 5-(((4′-Fluoro-[1,1′-biphenyl]-4-yl)methyl)amino)-2-methoxybenzonitrile] | 0% | 0% | 0% | 
11 | Cc1cc(-c2ccc(CNc3ccc(O)c(C(=O)O)c3)cc2)ccc1F [Example 44, 5-(((4′-Fluoro-3′-methyl-[1,1′-biphenyl]-4-yl)methyl)amino)-2-hydroxybenzoic acid] | 0% | 12% | 81% | 
12 | O=C(O)c1cc(O)cc(NCc2ccc(-c3ccc(F)cc3)cc2)c1 [Example 45, 3-(((4′-Fluoro-[1,1′-biphenyl]-4-yl)methyl)amino)-5-hydroxybenzoic acid] | 9% | 50% | 80% | 
13 | COc1ccc(NCc2ccc(-c3ccc(F)cc3)cc2)cc1C(=O)O [Example 46, 5-(((4′-fluoro-[1,1′-biphenyl]-4-yl)methyl)amino)-2-methoxybenzoic acid] | 9% | 31% | 53% | 
14 | N#Cc1cc(NCc2ccc(-c3ccc(F)cc3)cc2)ccc1O [Example 47, 5-(((4′-Fluoro-[1,1′-biphenyl]-4-yl)methyl)amino)-2-hydroxybenzonitrile] | 40% | 80% | 99% | 
15 | Oc1ccc(NCc2ccc(-c3ccc(F)cc3)cc2)cc1-c1nnn[nH]1 [Example 48] | 0% | 32% | 77% | 
16 | O=C(Nc1ccc(O)c(NS(=O)(=O)c2ccc(F)cc2)c1)c1ccc(-c2ccccc2)cc1 [SN-011] |  |  |  | H2O2-induced ROS production [2]: the difference between SN011 and Example 17 is less pronounced; 4-HNE-induced production of ROS [3]: the difference between SN011 and Example 17 is less pronounced; cell viability after H2O2 ([4]; 1 μM and 10 μM, H2O2 500 μM, 24 hours, n=3): fails to show a dose-response improvement between 1 μM and 10 μM; also recorded: Improvement in cell viability; cell viability after H2O2 ([4]; 1 μM, SN-011 vs Example 31): no significant difference; TBHP-induced production of ROS (oxidative stress) [5]: greater reduction in oxidative stress than PPARα agonism (Example 31 (BH400); cell viability after 4-HNE ([6]; 1 μM and 10 μM, 4-HNE 10 μM, 24 hr, n=3): fails to show a dose-response improvement between 1 μM and 10 μM; also recorded: Improvement in cell viability; cell viability after 4-HNE ([6]; 1 μM, SN-011 vs Example 31): no significant difference
17 | CC(C)OC(=O)C(C)(C)Oc1ccc(C(=O)c2ccc(Cl)cc2)cc1 [fenofibrate] |  |  |  | progression of DR and other microvascular endpoints [7]: significantly reduced the progression of DR and other microvascular endpoints; affinity for PPARα [8]: low affinity for PPARα; selectivity among PPAR subtypes [9]: lack of selectivity among PPAR subtypes
18 | CC(C)(Oc1ccc(C(=O)c2ccc(Cl)cc2)cc1)C(=O)O [fenofibric acid] |  |  |  | agonism of PPARα by major metabolite ([8]; major metabolite of fenofibrate): agonism of PPARα
